In patent publication US6531613B1 (3M Innovative Properties Company, priority 2001, dated 2003):

Assays:
[1] = type: physicochemical; details: for Dye Concentration in Acetone at RT: 72 h
Procedure: Examples 3-4 and Comparative Example A were prepared by placing 60-100 mg of each of the compounds of Examples 1-2 and 6-methoxy-14H-anthra(2,1,9-mna)thioxanthene-14-one (described by […] et al.) in a vial with 5.0 ml acetone. […] Each vial was hand shaken and the solution was filtered using a 0.45 micron polytetrafluoroethylene (PTFE) filter commercially available from VWR Scientific Products, West Chester, Pa. under the trade designation “Acrodisc 13CR PTFE”. The amount of fluorescent dye in the saturated acetone solution was determined by measuring the major dye absorption band at 535 nm using a UV-Vis Spectrophotometer commercially available from Shimadzu Scientific Instruments, Inc., Columbia, Md. under the trade designation “Shimadzu model UV-2401PC”. Dye concentrations were calculated by measuring the absorbance of the saturated acetone solution, and then diluting that solution until absorbance of the resulting solution was below 3. The dyes were assumed to have equal absorbance per mole. Using the dilution and an absorbance coefficient of 16,100 A/mol/L (coefficient obtained in acetone for the dye of Example 2) and assuming a Beer's Law relationship, the concentration of dye in each saturated solution was calculated and is set out in TABLE I.

SMILES	Dye Concentration in Acetone at RT [1] [mg/mL]	solubility in acetone relative to Comparative Example A [1]	melting point [°C]
COc1cc2c3ccccc3c(=O)c3ccc4c5ccccc5sc1c4c32 [A, 6-methoxy-14H-anthra(2,1,9-mna)thioxanthene-14-one, reference compound]	0.06	–	–
CCCCC(CC)COc1cc2c3ccccc3c(=O)c3ccc4c5ccccc5sc1c4c32 (stereo not drawn) [Example 1, 6-[(2-Ethylhexyl)oxy]-14H-anthra[2,1,9-mna]thioxanthene-14-one]	0.96	improved solubility	175 to 177
CC(C)CC(CC(C)C)Oc1cc2c3ccccc3c(=O)c3ccc4c5ccccc5sc1c4c32 [Example 2, 6-(1-Isobutyl-3-methylbutoxy)-14H-anthra[2,1,9-mna]thioxanthene-14-one]	2.98	improved solubility	–
